How the values were obtained:
Type in all cases: cell-based
hPPARα = biological target: T1, hPPARα (Homo sapiens, UniProt Q07869); experiment: In vitro co-transfection (PPRE-luciferase) assay in CV-1 cells, hPPARα; conditions: 24 h, read-out: Potency (EC50) hPPARα
T1 sequence (Q07869 1-468): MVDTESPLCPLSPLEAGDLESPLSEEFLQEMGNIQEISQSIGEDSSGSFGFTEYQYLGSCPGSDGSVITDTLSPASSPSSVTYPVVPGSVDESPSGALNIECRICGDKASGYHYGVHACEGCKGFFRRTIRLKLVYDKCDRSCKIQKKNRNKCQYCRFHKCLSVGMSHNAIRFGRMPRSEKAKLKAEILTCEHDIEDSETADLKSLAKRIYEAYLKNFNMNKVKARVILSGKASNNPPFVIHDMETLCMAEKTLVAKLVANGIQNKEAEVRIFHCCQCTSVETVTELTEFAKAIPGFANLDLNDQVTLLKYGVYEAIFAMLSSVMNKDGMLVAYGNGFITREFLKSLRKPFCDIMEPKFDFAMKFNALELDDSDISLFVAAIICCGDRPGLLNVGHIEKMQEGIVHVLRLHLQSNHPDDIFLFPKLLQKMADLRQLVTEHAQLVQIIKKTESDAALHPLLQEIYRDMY

hPPARδ = biological target: T2, hPPARδ (Homo sapiens, UniProt Q03181); experiment: In vitro co-transfection (PPRE-luciferase) assay in CV-1 cells, hPPARδ
T2 construct: expressed in transfected cells; host or cells: CV-1 monkey kidney cells
T2 sequence (Q03181 1-441): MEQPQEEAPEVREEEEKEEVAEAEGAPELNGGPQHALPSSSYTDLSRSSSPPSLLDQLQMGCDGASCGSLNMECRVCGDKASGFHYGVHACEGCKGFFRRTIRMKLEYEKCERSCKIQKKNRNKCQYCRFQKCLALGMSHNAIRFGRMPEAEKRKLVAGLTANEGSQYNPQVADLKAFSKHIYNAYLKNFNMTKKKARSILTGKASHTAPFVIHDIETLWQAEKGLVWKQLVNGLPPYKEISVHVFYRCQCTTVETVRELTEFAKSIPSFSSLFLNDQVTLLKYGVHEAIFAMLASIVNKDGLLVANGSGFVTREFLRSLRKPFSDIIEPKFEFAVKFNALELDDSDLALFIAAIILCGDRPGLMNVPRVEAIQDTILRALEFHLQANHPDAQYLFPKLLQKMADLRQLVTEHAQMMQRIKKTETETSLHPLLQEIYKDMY

hPPARγ = biological target: T3, hPPARγ (Homo sapiens, UniProt P37231); experiment: In vitro co-transfection (PPRE-luciferase) assay in CV-1 cells, hPPARγ; conditions: 24 h, read-out: Potency (EC50) hPPARγ
T3 sequence (P37231 1-505): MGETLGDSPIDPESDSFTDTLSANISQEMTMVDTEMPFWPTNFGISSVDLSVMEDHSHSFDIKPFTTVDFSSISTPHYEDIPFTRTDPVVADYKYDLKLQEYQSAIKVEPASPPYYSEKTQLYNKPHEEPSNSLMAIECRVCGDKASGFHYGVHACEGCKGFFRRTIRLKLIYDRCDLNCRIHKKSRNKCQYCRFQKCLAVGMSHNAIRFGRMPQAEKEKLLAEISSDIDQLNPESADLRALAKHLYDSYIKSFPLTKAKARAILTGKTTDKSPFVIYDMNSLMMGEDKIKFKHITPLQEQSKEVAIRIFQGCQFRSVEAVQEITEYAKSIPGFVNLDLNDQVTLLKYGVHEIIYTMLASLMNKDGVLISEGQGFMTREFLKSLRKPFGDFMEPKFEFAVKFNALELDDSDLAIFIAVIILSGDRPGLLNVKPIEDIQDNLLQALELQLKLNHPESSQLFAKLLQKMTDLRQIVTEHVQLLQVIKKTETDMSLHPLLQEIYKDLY

primary mouse astrocytes = experiment: Cytotoxicity assay (EZ-Cytox) in primary mouse astrocytes; conditions: up to 30 μM, 24 h

SMILES	EC50 (hPPARα) [µM]	EC50 (hPPARδ; co-transfection assay, CV-1 cells, 24 h, read-out: Potency (EC50) hPPARδ) [µM]	Selectivity index hPPARα/hPPARδ (hPPARδ; ratio EC50(hPPARα)/EC50(hPPARδ))	Selectivity index hPPARγ/hPPARδ (hPPARδ; ratio EC50(hPPARγ)/EC50(hPPARδ))	EC50 (hPPARγ) [µM]	Cytotoxicity in primary astrocytes (primary mouse astrocytes)
Cc1cc([Se]Cc2[se]c(-c3ccc(C(F)(F)F)cc3)nc2C)ccc1OCC(=O)O [Compound 5b, {2-Methyl-4-[4-methyl-2-(4-trifluoromethyl-phenyl)-selenazol-5-yl-methylselanyl]-phenoxy}-acetic acid]	> 10	0.0043	>2300	>2300	> 10	
Cc1cc(SCc2sc(-c3ccc(C(F)(F)F)cc3)nc2C)ccc1OCC(=O)O [GW501516, reference compound]						no cytotoxicity
